Assay results taken from ChEMBL document CHEMBL5104094, “Chemistry, biosynthesis and biological activity of terpenoids and meroterpenoids in bacteria and fungi isolated from different marine habitats” (Eur J Med Chem, 2021).
pEC50, pIC50: −log10 of the molar value. Values after ≈ are worked out from the molar mass of the structure shown.

Columns and labels:
HCT-116 [1] = assay: Cytotoxicity against human HCT-116 cells assessed as lethal dose; type: functional; settings: read-out: LD50 (the source's name)
RAW264.7 = assay: Inhibition of NO production in LPS-stimulated mouse RAW264.7 cells at 10 uM relative to control; type: functional
[2] = Hemolytic activity against human erythrocytes assessed as induction of cell lysis; type: toxicity, cell-based, Erythrocyte
[3] = tested on: Panel NCI-60 (60 carcinoma cell lines); assay: Cytotoxicity against human Panel NCI-60 (60 carcinoma cell lines) cells assessed as cell growth inhibition; type: functional, cell-based
Staphylococcus aureus = assay: Antimicrobial activity against Staphylococcus aureus assessed as microbial growth inhibition micro broth dilution assay; type: functional, organism-based
Bacillus subtilis = assay: Antimicrobial activity against Bacillus subtilis assessed as microbial growth inhibition micro broth dilution assay; type: functional, organism-based
Candida albicans = assay: Antimicrobial activity against Candida albicans assessed as microbial growth inhibition micro broth dilution assay; type: functional, organism-based
Candida parapsilosis = assay: Antimicrobial activity against Candida parapsilosis assessed as microbial growth inhibition micro broth dilution assay; type: functional, organism-based; settings: Lodderomyces parapsilosis
Cryptococcus neoformans = assay: Antimicrobial activity against Cryptococcus neoformans assessed as microbial growth inhibition micro broth dilution assay; type: functional, organism-based
HCT-116 [4] = assay: Cytotoxicity against human HCT-116 cells assessed as cell growth inhibition incubated for 72 hrs by Cell Titer Glo assay; type: functional, cell-based; settings: HCT-116, 72 h
[5] = Cytotoxicity against human BJ cells assessed as cell growth inhibition incubated for 72 hrs by Cell Titer Glo assay relative to control; type: toxicity, cell-based
A549 [6] = assay: Cytotoxicity against human A549 cells assessed as cell growth inhibition; type: functional, cell-based
HL-60 [7] = assay: Cytotoxicity against human HL-60 cells assessed as cell growth inhibition; type: functional, cell-based
[8] = Cytotoxicity against human HTB26 cells assessed as cell growth inhibition by Alamar blue staining based fluorescence assay; type: functional
HCT-116 [9] = assay: Cytotoxicity against human HCT-116 cells assessed as cell growth inhibition by Alamar blue staining based fluorescence assay; type: functional
MCF7 [10] = assay: Cytotoxicity against human MCF7 cells assessed as cell growth inhibition by Alamar blue staining based fluorescence assay; type: functional
[11] = Cytotoxicity against African green monkey cells assessed as cell growth inhibition by Alamar blue staining based fluorescence assay; type: toxicity; settings: African green monkey (Chlorocebus sabaeus), Vero cells
T-cell = assay: Cytotoxicity against mouse spleen T-cells assessed as cell growth inhibition; type: functional, cell-based
Macrophage = assay: Cytotoxicity against mouse spleen macrophage assessed as cell growth inhibition; type: functional, cell-based
HL-60 [12] = assay: Cytotoxicity against human HL-60 cells assessed as cell growth inhibition by MTT assay; type: functional, cell-based
A549 [13] = assay: Cytotoxicity against human A549 cells assessed as cell growth inhibition by SRB assay; type: functional, cell-based
NCI-H460 [14] = assay: Cytotoxicity against human NCI-H460 cells assessed as cell growth inhibition incubated for 48 hrs by MTT assay; type: functional, cell-based; settings: NCI-H460, 48 h
NCI-H460 [15] = assay: Induction of apoptosis in human NCI-H460 cells assessed as fold increase in […] at 35 uM incubated for 48 hrs by Annexin V-FITC/PI staining based flow cytometry; type: functional
MCF7 [16] = assay: Antitumor activity against human MCF7 cells xenografted in athymic nude BALB/c mouse assessed as tumor growth inhibition at 5 mg/kg, iv measured every 4 days for 40 days by caliper method relative to control; type: functional; settings: MCF7, 960 h, time 40 day, read-out: TGI
MCF7 [17] = assay: Antitumor activity against human MCF7 cells xenografted in athymic nude BALB/c mouse assessed as tumor growth inhibition at 10 mg/kg, iv measured every 4 days for 40 days by caliper method relative to control; type: functional; settings: MCF7, 960 h, time 40 day, read-out: TGI
MCF7 [18] = assay: Antitumor activity against human MCF7 cells xenografted in athymic nude BALB/c mouse assessed as tumor growth inhibition at 20 mg/kg, iv measured every 4 days for 40 days by caliper method relative to control; type: functional; settings: MCF7, 960 h, time 40 day, read-out: TGI
MCF7 [19] = assay: Antitumor activity against human MCF7 cells xenografted in athymic nude BALB/c mouse assessed as tumor growth inhibition at 20 mg/kg, iv measured every 4 days for 40 days by caliper method relative to PTX; type: functional; settings: MCF7, 960 h, time 40 day, read-out: TGI
MCF7 [20] = assay: Antitumor activity against Adriamycin-resistant human MCF7 cells xenografted in athymic nude BALB/c mouse assessed as tumor growth inhibition at 5 mg/kg, iv measured every 4 days for 40 days by caliper method relative to control; type: functional; settings: MCF7, 960 h, time 40 day, read-out: TGI
MCF7 [21] = assay: Antitumor activity against Adriamycin-resistant human MCF7 cells xenografted in athymic nude BALB/c mouse assessed as tumor growth inhibition at 5 mg/kg, iv measured every 4 days for 40 days by caliper method in presence of Adriamycin relative to control; type: functional; settings: MCF7, 960 h, time 40 day, read-out: TGI
NCI-H460 [22] = assay: Cytotoxicity against human NCI-H460 assessed as inhibition of cell viability incubated for 48 hrs by MTT assay; type: functional, cell-based; settings: NCI-H460, 48 h
NCI-H446 = assay: Cytotoxicity against human NCI-H446 assessed as inhibition of cell viability incubated for 48 hrs by MTT assay; type: functional, cell-based; settings: NCI-H446, 48 h
SMMC-7721 [23] = assay: Cytotoxicity against human SMMC-7721 cells assessed as cell growth inhibition incubated for 24 hrs by CCK8 assay; type: functional, cell-based; settings: SMMC-7721, 24 h
SMMC-7721 [24] = assay: Cytotoxicity against human SMMC-7721 cells assessed as cell growth inhibition incubated for 48 hrs by CCK8 assay; type: functional, cell-based; settings: SMMC-7721, 48 h

Work on COc1cc(OC)c2c(c1)[C@H]([C@H](O)/C=C(\C)CC[C@@H]1C(C)=CC[C@@H]3C(C)(C)CCC[C@@]13C)CCC2=O yielded a CC50 (HCT-116 [1]) of 2 µg/mL (≈ 4.04 µM).
With CC1=CC(=O)C[C@@]2(C)CC[C@@H](C(C)CO)C[C@H]12 (stereo partly drawn) the inhibition at 10 µM (RAW264.7) was 22.5%.
Work on Cc1cc2c(c(=O)o1)C[C@@H]1[C@@]3(C)[C@H](O)CC(=O)OC(C)(C)[C@@H]3[C@H](O)C[C@@]1(C)O2 yielded a pEC50 [2] of 2.94.
For CC1=CCC[C@@H](C)[C@]1(C)CC[C@@]1(C)c2c(O)cc3c(c2O[C@@H]1C)C(=O)C(C)=C(O)C3=O, the pIC50 [3] was 5.00.
Compound CC1=CC[C@@](O)([C@@]2(C)CCC(=O)O2)C[C@@H]1O has an IC50 (Staphylococcus aureus) of 3 µg/mL, an IC50 (Bacillus subtilis) of 3 µg/mL and an IC50 (Candida albicans) of 3 µg/mL. The IC50 (Candida parapsilosis) was 3 µg/mL and the IC50 (Cryptococcus neoformans) was 3 µg/mL.
With CC1(C)CCC[C@]2(C)[C@H]3Cc4c(c(O)c(O)c5nc(C(=O)O)ccc45)O[C@]3(C)CC[C@@H]12 the pIC50 (HCT-116 [4]) was 5.00 and the inhibition at 72 h [5] was 43%.
For CC1(C)CCC[C@@](C)(c2ccc(CO)cc2O)O1, the IC50 (A549 [6]) was > 50 µg/mL and the IC50 (HL-60 [7]) was > 50 µg/mL.
Work on C=C(C)C1C[C@H](O)C2(C)CCCC3C2C1CC(C)C3(C)CC/C(C)=C/[C@@H](O)[C@@H]1CCC(=O)c2c(OC)cc(OC)cc21 (stereo partly drawn) yielded a pIC50 [8] of 5.00, a pIC50 (HCT-116 [9]) of 4.92 and a pIC50 (MCF7 [10]) of 5.11. It also gave a pIC50 [11] of 4.63.
For CC(=O)c1nncc2c1C(=O)C1=C(OC(C)(C)[C@H](Cl)C1=O)[C@]2(O)C[C@H]1C(C)(C)[C@@H](Cl)CC[C@]1(C)O, the pIC50 (T-cell) was 4.40 and the pIC50 (Macrophage) was 4.40.
Compound CO[C@]12C=C3[C@@H]4O[C@@H]4[C@H](OC(C)=O)[C@H](C)[C@@]3(C)C[C@]13O[C@]3(C)CO2 has a pIC50 (HL-60 [12]) of 4.55 and a pIC50 (A549 [13]) of 5.28.
In the case of C[C@]12C3=CC(=O)OCC3=C[C@H]3OC(=O)[C@@](C)(C=C[C@H]1O)[C@H]32 [ASPEROLIDE A], the pIC50 (NCI-H460 [14]) was 4.75 and the “fold change (FC)” value (NCI-H460 [15]) was 2.9.
For CO[C@H]1O[C@@]2(OC)C[C@@](C)(O)[C@H]3C[C@@]4(C)CC[C@H]([C@@H](C)/C=C\C=C(C)C)[C@@H]4C/C=C/1[C@H]32 [OPHIOBOLIN O], the inhibition in vivo at 5 mg/kg (MCF7 [16]) was 35%, the inhibition in vivo at 10 mg/kg (MCF7 [17]) was 46% and the inhibition in vivo at 20 mg/kg (MCF7 [18]) was 69%. For the same compound, the inhibition in vivo at 20 mg/kg (MCF7 [19]) was 73%, the inhibition in vivo at 5 mg/kg (MCF7 [20]) was 23% and the inhibition in vivo at 5 mg/kg (MCF7 [21]) was 71%.
C[C@@]12C3=CC(=O)OCC3=C[C@H]3OC(=O)[C@](C)([C@H]31)[C@@H](O)[C@H]1O[C@H]12 [WENTILACTONE A] showed a pIC50 (NCI-H460 [22]) of 5.25 and a pIC50 (NCI-H446) of 5.72.
With C[C@@]12C[C@@H](O)C[C@]3(C)C4=CC(=O)OCC4=C[C@@H](OC1=O)[C@@H]23 [WENTILACTONE B] the pIC50 (SMMC-7721 [23]) was 4.51 and the pIC50 (SMMC-7721 [24]) was 4.72.
